From patent US4820690A (G. D. Searle & Co., priority 1984, dated 1989)

Key:
[1] = tested on: cysteamine induced duodenal ulcers; experiment: Healing of cysteamine-induced perforating duodenal ulcers, therapy in drinking water for 50 days (Example 1); assay type: in vivo; settings: rats, 50 days therapy from day 7 after cysteamine, urogastrone 6 μg./rat/day, cimetidine 100 mg./rat/day; for Healed (number of healed ulcers) / Unhealed (number of unhealed ulcers): n 15
Procedure: Rats with perforating duodenal ulcers confirmed by laparotomy were selected from a large number and given two doses of cysteamine as described in the following protocol. These animals were randomly assigned to treatment groups of 15 rats each. The protocol utilises 2 doses of cysteamine (300 mg./kg. and 150 mg./kg., 6 hours apart). This procedure produces deep perforating duodenal ulcers in a majority of the rats injected. The "chronic" ulcers heal extremely slowly. Previous studies have shown that after 50 days only 20% have healed as judged by reepithelialization of the surface. Even after 200 days, 36% remain unhealed. In order to provide for a reliable experimental protocol, rats given 2 doses of cysteamine are subjected to an intra-abdominal inspection by laparotomy 5 days after induction. Only those rats in which perforation of the ulcer to the duodenal external serosal surface has occurred are included in the experimental groups. Rats with non-perforating ulcers are discarded. Therapy by drug or placebo then begins on day 7 post-induction.On termination after a standardised period of (21 to 50 days) therapy the duodenum is removed from all rats, fixed and stained with PAS and the number of healed and unhealed ulcers determined by macroscopic examination of the mucosal surface with a stereomicroscope. Healing is defined as restoration of complete mucosal integrity by reepithelialisation of the surface. This is confirmed by subsequent histology. In this example, therapy commenced on day 7 following cysteamine and continued for 50 days.

[2] = tested on: gastric acid secretion; experiment: Histamine stimulated acid secretion in beagle dogs with Heidenhain pouches (Example 3); assay type: in vivo, dog; settings: Heidenhain pouch dogs; for effect on acid secretion, intravenous administration: intravenously administered
Procedure: Male beagle dogs (14-22 kg.) were prepared with isolated Heidenhain (vagal denervated) pouches derived from the fundic area of the stomach by the method of Rudick et al, J. Surg. Res. 7: 383, 1967. Animals were allowed 4-6 weeks to recover from surgery and given a 2-3 month training period to standardise laboratory behaviour and secretory responses. The dogs were fasted for 23 hours prior to use, the pouch then flushed with warm water and histamine infused subcutaneously at a rate of 10 μg./min. Pouch secretions were collected every 15 minutes, their volume measured and aliquots titrated to pH 7.0 with 100 mM NaOH.

[3] = tested on: gastric acid secretion; settings: administered intravenously to animals; cited from earlier work
[4] = tested on: acid secretion in the stomach; settings: administered by a systemic route; cited from earlier work
[5] = tested on: cysteamine induced duodenal ulcers; experiment: Healing of cysteamine-induced duodenal ulcers, therapy by oral gavage for 21 days, assessed blind by 2 observers (Example 2); assay type: in vivo; settings: rats, 10 μg./rat/dose by oral gavage three times a day
Procedure: The protocol utilises 2 doses of cysteamine (300 mg./kg. and 150 mg./kg., 6 hours apart).
In order to provide for a reliable experimental protocol, rats given 2 doses of cysteamine are subjected to an intra-abdominal inspection by laparotomy 5 days after induction. Only those rats in which perforation of the ulcer to the duodenal external serosal surface has occurred are included in the experimental groups. Rats with non-perforating ulcers are discarded. Therapy by drug or placebo then begins on day 7 post-induction.On termination after a standardised period of (21 to 50 days) therapy the duodenum is removed from all rats, fixed and stained with PAS and the number of healed and unhealed ulcers determined by macroscopic examination of the mucosal surface with a stereomicroscope. Healing is defined as restoration of complete mucosal integrity by reepithelialisation of the surface.
In this Example the same protocol was followed as in Example 1 but therapy was continued for only 21 days after commencing on day 7 following ulcer induction.

[6] = tested on: gastrointestinal mucosa; settings: administered concurrently with or prior to the injurious stimuli; cited from earlier work
[7] = tested on: gastrointestinal epithelial proliferation; experiment: Crypt cell production rate of gastrointestinal epithelium in rats on total parenteral nutrition (Example 4); assay type: in vivo, rat; settings: intragastric infusion of similar or much larger doses than i.v.
Procedure: These animals have permanent indwelling i.v. catheters connected to infusion pumps via 360° swivel joints which allow normal mobility of the rats within their cages. A complete parenteral food mixture is infused through the catheters at a rate of 60 ml./rat/24 h. The animals are allowed water in the normal way but no food by mouth.
Epithelial cell turnover in these experiments was determined as the crypt cell production rate (CCPR) at each site examined. CCPR was defined as the number of new cells produced per mucosal crypt per hour (for method of determination see Al Nafussi and Wright, Virch. Arch. Cell Pathol. 40: 63, 1982).
Infusion was continued for 10 days.

## CN/C(=N/CCSCc1nc[nH]c1C)NC#N [Cimetidine, reference compound]
[1]
  Percentage Rate (healed): 40%
  Healed (number of healed ulcers): 6
  Unhealed (number of unhealed ulcers): 9

## Urogastrone: active form of human urogastrone, polypeptide hormone of 53 amino acids; recombinant derived, produced by microbial methods
[2]; after intravenous bolus injection
  time to peak inhibition of the acid secretion response to histamine: ≤ 30 min
[2]; intravenous bolus dose, histamine 10 μg./min s.c., from log-linear dose response regression plots
  dose required to produce a 50% inhibition of acid secretion: 0.27 µg/kg
[2]
  effect on acid secretion, intravenous administration: inhibited acid secretion
[2]; single oral solution dose, even at 4 mg. (approximately 200 μg./kg.)
  effect on acid secretion, oral administration: no effect on acid secretion
[3]
  activity in inhibiting acid secretion, beta- versus gamma-urogastrone: equal activity
[4]
  inhibition of acid secretion in the stomach of humans: inhibit acid secretion
[1]
  Percentage Rate (healed): 43%
  Healed (number of healed ulcers): 6
  Unhealed (number of unhealed ulcers): 8
[5]
  Percentage healed, observer (1): 36%
  Percentage healed, observer (2): 23%
[5]; n 22
  Healed, observer (1): 8
  Unhealed, observer (1): 14
  Unhealed, observer (2): 17
[6]
  protection of the gastrointestinal mucosa against damaging stimuli and ulcer formation: protect the gastrointestinal mucosa
[7]
  effect on gastrointestinal epithelial proliferation, intragastric infusion: no effect

## gamma-urogastrone: 52 amino acid form that differs from beta-urogastrone only in lacking the carboxy-terminal arginine residue (NSDSECPLSHDGYCLHDGVCMYIEALDKYACNCVVGYIGERCQYRDLKWWEL; Epidermal growth factor; UniProt P01133 971-1022, looked up, fragment)
[3]
  activity in inhibiting acid secretion, beta- versus gamma-urogastrone: equal activity

## mEGF: epidermal growth factor from mouse salivary glands, polypeptide of 53 amino acids resembling beta-urogastrone (NSYPGCPSSYDGYCLNGGVCMHIESLDSYTCNCVIGYSGDRCQTRDLRWWELR; Epidermal growth factor; UniProt P01132 977-1029, looked up) [reference compound]
[2]
  effect on acid secretion, intravenous administration: inhibited acid secretion
[6]
  protection of the gastrointestinal mucosa against damaging stimuli and ulcer formation: protect the gastrointestinal mucosa
